Source: publication PMC8453901, “GLPG1205, a GPR84 Modulator: Safety, Pharmacokinetics, and Pharmacodynamics in Healthy Subjects” (Clinical Pharmacology in Drug Development, 2021)
“Also recorded” adds a separate entry of the source.

Key:
CYP3A4 = CYP3A4 induction by 6β-OH-cortisol/cortisol ratio in urine; format: in vivo, human; conditions: 50 mg, 100 mg and 200/150 mg once daily; days -1 and 13
Description: The potential of CYP3A4 induction was assessed by means of the ratio of 6β‐OH‐cortisol to cortisol in urine.[10], [11], [12], [13], [14] Cortisol concentrations in urine were determined by using a radioimmunoassay method based on competition between labeled antigens and antigens on the specific sites of the antiserum coated on the tubes. At the end of the incubation period, the liquid in the tubes was removed by aspiration and the radioactivity (^125I‐cortisol) was measured using a gamma counter (Packard Cobra II auto‐gamma counter; Packard Instrument Co Inc, Meriden, Connecticut). […] The best curve was determined by the polynomial second‐order equation. The limit of quantification of the cortisol assay for the urine samples was set at 10 ng/mL.
6β‐OH‐cortisol concentrations in urine were determined by using a 2‐step, quantitative competitive enzyme immunoassay technique. […] The calibration equation was computed using SoftMax Pro software (Molecular Devices, Sunnyvale, California) by plotting the log of 6β‐OH‐cortisol concentrations versus the A/Ao (when A was standard or sample 6β‐OH‐cortisol absorbance and Ao was the standard 0 absorbance). The best line was determined by using the 4‐parameter logistic model. The limit of quantification of the 6β‐OH‐cortisol assay for the urine samples was set at 50 pg/mL. […]

[1] = design: method as in PMID 32902984; conditions: human and animals; cited from earlier work
[2] = tested on: cytochrome P450 (CYP) 3A4 and CYP2C19; conditions: background statement, no reference given; cited from earlier work

In the case of O=c1nc(OC[C@@H]2COCCO2)cc2n1CCc1cc(C#CC3CC3)ccc1-2 [GLPG1205, 9‐cyclopropylethynyl‐2‐((S)‐1‐[1,4]dioxan‐2‐ylmethoxy)‐6,7‐dihydropyrimido[6,1‐a]isoquinolin‐4‐one], the “6β‐OH‐cortisol/cortisol ratio in urine” value (CYP3A4) is given as “No significant day and dose effects; also recorded: did not impact”, the plasma protein binding [1] is given as at least 92% and the “main enzymes involved in GLPG1205 metabolism” value [2] is given as “cytochrome P450 (CYP) 3A4 and CYP2C19”.
